In patent US11351399B2, “Combined local delivery of therapeutic agents using interventional devices and radiation” (The University of North Carolina At Chapel Hill, priority 2014, dated 2022):
Values joined by “and” are separate entries in the source; they are usually repeats but may differ in a detail not shown here. Equal entries are not always repeated. Where two headings read alike, the source gives them in different places.

Experiments:
[1] = biodistribution/PK of device and/or IV cisplatin in orthotopic SUM149 cell xenograft model; type: in vivo, mice
Method: Device delivery of cisplatin was evaluated using an orthotopic SUM149 cell xenograft model of breast cancer. In addition to studying iontophoretic delivery as compared to IV delivery of the cisplatin, concurrent device and IV delivery was added as an arm of the study based upon the low systemic exposure of cisplatin. In the study, a single treatment was administered after adhesion of the device to the skin above the tumor.

[2] = tested on: SUM149 cell xenograft orthotopic breast cancer model; type: in vivo, mice; conditions: for median lifespan: control median 49 days; for tumor growth inhibition: weekly, four doses
Method: (§1) Iontophoretic delivery of cisplatin in was tested in both SUM149 cell xenograft and T11 syngeneic orthotopic breast cancer models. For both models, the efficacies of device cisplatin, IV cisplatin, device+IV cisplatin, device saline, and IV saline were compared.
(§2) For the SUM149 xenograft model, once the tumors reached ˜50 mm^3, the mice were treated with device cisplatin, IV cisplatin (5 mg/kg), device+IV cisplatin (5 mg/kg), device saline, or IV saline every week for four total doses, as shown in FIGS. 35A and 35B. […] For the T11 model, mice received two doses of device cisplatin, IV cisplatin (5 mg/kg), device+IV cisplatin (5 mg/kg), device saline, or IV saline every week for two total doses beginning five days after inoculation (˜20 mm^3), as shown in FIGS. 35C and 35D. The number of treatments varied between tumor models because of the differences in tolerability of treatments.

[3] = tested on: T11 syngeneic orthotopic breast cancer model; assay: tumor treatment efficacy of cisplatin, T11 syngeneic model; type: in vivo, mice; conditions: for median lifespan: control median 10 days; for tumor growth inhibition: two doses
Method: as §1, §2

[4] = tested on: T11 syngeneic orthotopic breast cancer models; assay: combined cisplatin and radiation efficacy, T11 syngeneic model; type: in vivo, mice; conditions: single dose
Method: Using T11 syngeneic orthotopic breast cancer models, radiotherapy was tested as an alternative and/or additional treatment method to device and IV cisplatin to compare the therapeutic effects of the various treatments. Mice received a single dose of radiation (10 Gy), device cisplatin, device cisplatin+radiation (10 Gy), IV cisplatin (5 mg/kg), IV cisplatin+radiation (10 Gy), device+IV cisplatin (5 mg/kg), and device cisplatin+IV cisplatin (5 mg/kg)+radiation (10 Gy) five days after inoculation (˜20 mm^3).

[5] = ex vivo cisplatin transport into human skin, modified Franz diffusion cell; conditions: 1 mA for 25 minutes, ~1 mm thick skin, ICP-MS
Method: Ex vivo drug transport studies were also conducted by transporting cisplatin into ˜1 mm thick human skin and were evaluated using a modified Franz diffusion cell with the test drug transport device directly above the skin instead of a donor chamber. During the testing, 1 or 0 mA of current was applied for 25 minutes, and the skin and solution were snap frozen, processed, and analyzed by inductively coupled plasma-mass spectrometry (ICP-MS).

[6] = ex vivo drug transport in pancreatic cancer PDX tumors; type: in vitro ADME; conditions: 2 mA for 10 minutes, device sutured onto ex vivo PDX tumor, UV-HPLC
Method: Ex vivo drug transport studies were conducted using pancreatic cancer patient-derived xenografts (PDXs). Test drug transport devices were sutured onto the ex vivo PDX tumors and a counter electrode was placed on the contralateral side of the tumor. 2 or 0 mA of current was applied for 10 minutes and the tumors were subsequently snap frozen, processed, and analyzed by UV-high performance liquid chromatography (HPLC).

in vivo = conditions: mouse
Source text: Orthotopic PDX models of pancreatic cancer were used to characterize iontophoretic delivery of gemcitabine with respect to pharmacokinetics (PK).
In the present example, IV delivery of gemcitabine was compared to local iontophoretic delivery of gemcitabine.

[7] = PK study of device versus IV gemcitabine in non-tumor bearing dogs; type: in vivo
Method: Since there was no readily available large animal model for pancreatic cancer, a representative non-tumor bearing large animal model (Dogs) for humans was used. A laparotomy was performed and iontophoretic devices (shown in FIG. 41) were sutured directly onto the pancreas. A constant current of 10 mA was applied for 60 minutes using either 40 or 10 mg/mL gemcitabine (n=5, per group). […] For the IV treatment arm (n=4, per group), clinical protocol was followed for gemcitabine administration, which was an infusion of a 1 g/m^2 dose for thirty minutes, and the animal was euthanized 60 minutes after the start of the infusion. The plasma was sampled at 15 minute increments before, during, and after therapy. After therapy, the tissues were removed, flash-frozen, and analyzed by UV-HPLC.

[8] = tested on: orthotopic PDX model of pancreatic cancer; conditions: for mice with tumor regression: twice a week up to 7 weeks
Method: Iontophoretic devices were surgically implanted into orthotopic PDX tumors when their size reached ˜200 mm^3, as determined by high resolution 3D ultrasound. Mice were treated twice a week for up to 7 weeks with device gemcitabine (20 mg/mL), device saline (0.9% NaCl), IV Gemcitabine (80 mg/kg), or IV saline. Tumor volumes were measured by volume displacement after completion of the scheduled treatment due to the interference of implanted devices with ultrasound imaging.

[9] = device+IV cisplatin (5 mg/kg) + radiation (10 Gy)

SMILES: [NH2][Pt]([NH2])([Cl])[Cl] [cisplatin]
- Platinum Plasma Exposure (AUC) ([1]; Device + IV (5 mg/kg) Delivery): 10650 ng·h/mL
- Platinum Plasma Exposure (AUC) ([1]; Device Delivery, single treatment): 1990 ng·h/mL
- Platinum Plasma Exposure (AUC) ([1]; IV (5 mg/kg) Delivery): 9910 ng·h/mL
- median lifespan ([2]; IV cisplatin (5 mg/kg)): 68 days
- tumor γH2AX staining, device cisplatin versus IV cisplatin ([2]; device cisplatin, tumors post treatment): almost equivalent γH2AX staining
- tumor growth inhibition ([2]; device cisplatin, similar to IV cisplatin until day 42): significant tumor growth inhibition
- median lifespan ([2]; device cisplatin): 60 days
- tumor growth inhibition ([2]; device+IV cisplatin (5 mg/kg)): significant tumor growth inhibition
- median lifespan ([2]; device+IV cisplatin (5 mg/kg)): > 100 days
- tumor γH2AX staining ([2]; device+IV cisplatin, tumors post treatment): greater γH2AX staining
- skin of the mice after device treatment ([2]; mouse, in vivo): no scarring or deformation
- tolerability by kidney γH2AX staining compared to IV cisplatin and device+IV cisplatin ([2]; mouse, in vivo): better tolerated
- median lifespan ([3]; IV cisplatin (5 mg/kg)): 22 days
- tumor growth inhibition ([3]; device cisplatin, similar to IV cisplatin until day 9): significant tumor growth inhibition
- median lifespan ([3]; device cisplatin): 20 days
- tumor growth inhibition ([3]; device+IV cisplatin (5 mg/kg)): significant tumor growth inhibition
- median lifespan ([3]; device+IV cisplatin (5 mg/kg)): 32 days
- survival on addition of radiation ([4]; IV cisplatin (5 mg/kg) + radiation (10 Gy)): significantly improved survival
- survival on addition of radiation ([4]; device cisplatin + radiation (10 Gy)): significantly improved survival
- survival on addition of radiation [4, 9]: significantly improved survival
- tumor growth inhibition and survival versus other groups [4, 9]: outperformed all other treatment groups
- fold increase in platinum transported into the human skin versus passive diffusion (0 mA) [5]: 11.4 fold

SMILES: Nc1ccn([C@@H]2O[C@H](CO)[C@@H](O)C2(F)F)c(=O)n1 [gemcitabine]
- fold increase in drug transport versus passive diffusion control (0 mA) [6]: 9.1 fold
- gemcitabine in plasma (in vivo): no detectable gemcitabine
- gemcitabine tumor AUC (in vivo): 348070 ng·h/mL
- distance away from the devices at which gemcitabine was detected (in vivo; 0 h): 4.7 mm
- distance away from the devices at which gemcitabine was detected (in vivo; 3 h): 3 mm
- distance away from the devices at which gemcitabine was detected (in vivo; 6 h): 3 mm
- AUC (in vivo; iv, 80 mg/kg): 65200 ng·h/mL
- gemcitabine tumor AUC (in vivo; iv, 80 mg/kg): 30780 ng·h/mL
- gemcitabine in plasma ([7]; IV infusion 1 g/m^2 for thirty minutes): detected in the plasma of all dogs
- distance of gemcitabine transport away from the electrode ([7]; device, 10 mg/mL): 6.3 mm
- fold increase in concentration of gemcitabine in the normal canine pancreas compared to IV administration ([7]; device, 10 mg/mL): 2.0 fold
- drug in plasma ([7]; device, 10 mg/mL, 10 mA for 60 minutes): no drug detected
- distance of gemcitabine transport away from the electrode ([7]; device, 40 mg/mL): 9.6 mm
- fold increase in concentration of gemcitabine in the normal canine pancreas compared to IV administration ([7]; device, 40 mg/mL): 7.1 fold
- dogs with detectable levels of gemcitabine in plasma ([7]; device, 40 mg/mL, 10 mA for 60 minutes): 2 out of 5
- fold lower plasma gemcitabine levels than the IV treatment ([7]; device, 40 mg/mL, dogs with detectable levels): at least 25 fold
- mean log2-fold change in tumor volume ([8]; IV gemcitabine (80 mg/kg)): 1.1
- mice with tumor regression ([8]; IV gemcitabine (80 mg/kg)): 0/7
- Ki-67 staining of tumors post treatment versus IV gemcitabine and saline arms ([8]; device gemcitabine): decrease in Ki-67 staining
- mean log2-fold change in tumor volume ([8]; device gemcitabine (20 mg/mL)): −0.8
- mice with tumor regression ([8]; device gemcitabine (20 mg/mL), 52-day study): 7 out of 7 and 7/7
- tolerability (body weight gain, alanine transaminase, lipase) compared to IV gemcitabine ([8]; mouse, in vivo): better tolerated
